{"source": "ChEMBL document CHEMBL1137198", "about": "“Discovery of thiadiazoles as a novel structural class of potent and selective PDE7 inhibitors. Part 2: metabolism-directed optimization studies towards orally bioavailable derivatives” (Bioorg Med Chem Lett, 2004)", "key": {"[1]": {"assay": "Clearance at 0.5 mg/kg i.v.", "format": "ADME, organism-based", "set-up": "dose 0.5 mg/kg, route intravenous", "conditions": "in vivo, iv"}, "[2]": {"assay": "Oral bioavailability (dose 2.5 mg/kg)", "format": "ADME, organism-based", "conditions": "eutheria, in vivo"}, "[3]": {"assay": "Reduction in clearance when compared with compound 1", "format": "ADME, organism-based", "conditions": "in vivo"}, "[4]": {"assay": "Half life at 2.5 mg/kg po.", "format": "ADME, organism-based", "set-up": "dose 2.5 mg/kg", "conditions": "in vivo"}, "[5]": {"assay": "Volume of distribution at 0.5 mg/kg i.v.", "format": "ADME, organism-based", "set-up": "dose 0.5 mg/kg, route intravenous", "conditions": "in vivo, iv"}, "[6]": {"assay": "Inhibition of human Phosphodiesterase 7A1 or human phosphodiesterase 4D3 expressed in baculovirus infected Sf9 cells"}, "[7]": {"assay": "Reduction in Clearance when compared with compound 1", "format": "ADME, organism-based", "conditions": "in vivo"}, "[8]": {"assay": "Solubility at pH 7.4", "format": "physicochemical", "conditions": "buffer"}}}
{"smiles": "Cn1nc(-c2ccc(C(N)=O)cc2)s/c1=N\\C1CCCCC1O", "note": "(stereo in doubt; trans)", "values": [{"measurement": "clearance", "setting": "[1]", "result": 38.2, "unit": "mL/min/kg"}, {"measurement": "bioavailability", "setting": "[2]", "result": 24.7, "unit": "%"}, {"measurement": "CL_Ratio", "setting": "[3]", "result": 79, "unit": "%"}, {"measurement": "half-life", "setting": "[4]", "result": 18.6, "unit": "min"}, {"measurement": "Vd", "setting": "[5]; read-out: Vd", "result": 1.47, "unit": "L/kg"}]}
{"smiles": "Cn1nc(-c2ccc(C(N)=O)cc2)s/c1=N\\C1CCCC(O)C1", "note": "(stereo in doubt; cis)", "values": [{"measurement": "clearance", "setting": "[1]", "result": 34.4, "unit": "mL/min/kg"}, {"measurement": "F", "setting": "[2]", "result": 61.2, "unit": "%"}, {"measurement": "CL_Ratio", "setting": "[3]", "result": 81, "unit": "%"}, {"measurement": "half-life", "setting": "[4]", "result": 85.2, "unit": "min"}, {"measurement": "IC50", "setting": "[6]", "result": 1650, "unit": "nM"}, {"measurement": "Vd", "setting": "[5]; read-out: Vd", "result": 1.39, "unit": "L/kg"}]}
{"smiles": "Cn1nc(-c2ccc(S(C)(=O)=O)cc2)s/c1=N\\C1CCCC(O)C1", "note": "(stereo in doubt)", "values": [{"measurement": "CL_Ratio", "setting": "[7]", "result": 93, "unit": "%"}, {"measurement": "clearance", "setting": "[1]", "result": 12.2, "unit": "mL/min/kg"}, {"measurement": "bioavailability", "setting": "[2]", "result": 100, "unit": "%"}, {"measurement": "solubility", "setting": "[8]; read-out: Solubility", "result": 135, "unit": "µg/mL"}, {"measurement": "half-life", "setting": "[4]", "result": 120, "unit": "min"}, {"measurement": "Vd", "setting": "[5]; read-out: Vd", "result": 0.92, "unit": "L/kg"}]}
{"smiles": "CC(=O)Nc1ccc(-c2nn(C)/c(=N/C3CCCCC3)s2)cc1", "values": [{"measurement": "CL_Ratio", "setting": "[7]", "result": 58, "unit": "%"}, {"measurement": "clearance", "setting": "[1]", "result": 74.7, "unit": "mL/min/kg"}, {"measurement": "bioavailability", "setting": "[2]", "result": 19.6, "unit": "%"}, {"measurement": "solubility", "setting": "[8]; read-out: Solubility", "result": 8, "unit": "µg/mL"}, {"measurement": "half-life", "setting": "[4]", "result": 44.4, "unit": "min"}, {"measurement": "Vd", "setting": "[5]; read-out: Vd", "result": 3.3, "unit": "L/kg"}]}
{"smiles": "Cn1nc(-c2ccc(C(N)=O)cc2)s/c1=N\\C1CCCC(O)C1", "note": "(stereo in doubt; trans)", "values": [{"measurement": "Cl", "setting": "[1]", "result": 59.9, "unit": "mL/min/kg"}, {"measurement": "F", "setting": "[2]", "result": 38.5, "unit": "%"}, {"measurement": "CL_Ratio", "setting": "[3]", "result": 67, "unit": "%"}, {"measurement": "T1/2", "setting": "[4]", "result": 1.8, "unit": "h"}, {"measurement": "Vd", "setting": "[5]", "result": 1.78, "unit": "L/kg"}]}
{"smiles": "Cn1nc(-c2ccc(S(C)(=O)=O)cc2)s/c1=N\\C1CCCC(O)C1", "note": "(stereo in doubt; 21a 9(R,R))", "values": [{"measurement": "CL_Ratio", "setting": "[7]", "result": 91, "unit": "%"}, {"measurement": "Cl", "setting": "[1]", "result": 15.1, "unit": "mL/min/kg"}, {"measurement": "solubility", "setting": "[8]", "result": 160, "unit": "µg/mL"}, {"measurement": "T1/2", "setting": "[4]", "result": 2.5, "unit": "h"}, {"measurement": "Vd", "setting": "[5]", "result": 0.62, "unit": "L/kg"}]}
{"smiles": "CN1CCN(C(=O)c2ccc(-c3nn(C)/c(=N/C4CCCCC4)s3)cc2)CC1", "values": [{"measurement": "CL_Ratio", "setting": "[7]", "result": 75, "unit": "%"}, {"measurement": "clearance", "setting": "[1]", "result": 44.8, "unit": "mL/min/kg"}, {"measurement": "bioavailability", "setting": "[2]", "result": 85, "unit": "%"}, {"measurement": "solubility", "setting": "[8]; read-out: Solubility", "result": 350, "unit": "µg/mL"}, {"measurement": "half-life", "setting": "[4]", "result": 82.2, "unit": "min"}, {"measurement": "Vd", "setting": "[5]; read-out: Vd", "result": 2.59, "unit": "L/kg"}]}
{"smiles": "Cn1nc(-c2ccc(C(=O)NC(C)(C)CO)cc2)s/c1=N\\C1CCCC(O)C1", "note": "(centres undefined)", "values": [{"measurement": "CL_Ratio", "setting": "[7]", "result": 86, "unit": "%"}, {"measurement": "clearance", "setting": "[1]", "result": 24.9, "unit": "mL/min/kg"}, {"measurement": "bioavailability", "setting": "[2]", "result": 63, "unit": "%"}, {"measurement": "solubility", "setting": "[8]; read-out: Solubility", "result": 58, "unit": "µg/mL"}, {"measurement": "half-life", "setting": "[4]", "result": 27.6, "unit": "min"}, {"measurement": "Vd", "setting": "[5]; read-out: Vd", "result": 0.43, "unit": "L/kg"}]}
{"smiles": "Cn1nc(-c2ccc(C(N)=O)cc2)s/c1=N\\C1CCC(O)CC1", "note": "(centres undefined)", "values": [{"measurement": "clearance", "setting": "[1]", "result": 66.9, "unit": "mL/min/kg"}, {"measurement": "bioavailability", "setting": "[2]", "result": 7, "unit": "%"}, {"measurement": "CL_Ratio", "setting": "[3]", "result": 62, "unit": "%"}, {"measurement": "half-life", "setting": "[4]", "result": 16.2, "unit": "min"}, {"measurement": "Vd", "setting": "[5]; read-out: Vd", "result": 0.98, "unit": "L/kg"}]}
{"smiles": "Cn1nc(-c2ccc(S(C)(=O)=O)cc2)s/c1=N\\c1cccc(C(=O)O)c1", "values": [{"measurement": "clearance", "setting": "[1]", "result": 15.8, "unit": "mL/min/kg"}, {"measurement": "bioavailability", "setting": "[2]", "result": 29.3, "unit": "%"}, {"measurement": "solubility", "setting": "[8]; read-out: Solubility", "result": 370, "unit": "µg/mL"}, {"measurement": "half-life", "setting": "[4]", "result": 162, "unit": "min"}, {"measurement": "Vd", "setting": "[5]; read-out: Vd", "result": 7.58, "unit": "L/kg"}]}
{"smiles": "Cn1nc(-c2cccc(C#N)c2)s/c1=N\\c1cccc(C(=O)O)c1", "values": [{"measurement": "clearance", "setting": "[1]", "result": 2.65, "unit": "mL/min/kg"}, {"measurement": "bioavailability", "setting": "[2]", "result": 37, "unit": "%"}, {"measurement": "solubility", "setting": "[8]; read-out: Solubility", "result": 295, "unit": "µg/mL"}, {"measurement": "half-life", "setting": "[4]", "result": 285, "unit": "min"}, {"measurement": "Vd", "setting": "[5]; read-out: Vd", "result": 0.99, "unit": "L/kg"}]}
{"smiles": "Cn1nc(-c2ccc(Cl)cc2)s/c1=N\\c1ccc(F)c(C(=O)O)c1", "values": [{"measurement": "clearance", "setting": "[1]", "result": 3.9, "unit": "mL/min/kg"}, {"measurement": "bioavailability", "setting": "[2]", "result": 49.3, "unit": "%"}, {"measurement": "solubility", "setting": "[8]; read-out: Solubility", "result": 145, "unit": "µg/mL"}, {"measurement": "half-life", "setting": "[4]", "result": 118, "unit": "min"}, {"measurement": "Vd", "setting": "[5]; read-out: Vd", "result": 0.18, "unit": "L/kg"}]}
{"smiles": "Cn1nc(-c2ccc(C(N)=O)cc2)s/c1=N\\C1CCCCC1", "values": [{"measurement": "clearance", "setting": "[1]", "result": 179, "unit": "mL/min/kg"}, {"measurement": "solubility", "setting": "[8]; read-out: Solubility", "result": 4, "unit": "µg/mL"}, {"measurement": "Vd", "setting": "[5]; read-out: Vd", "result": 7.65, "unit": "L/kg"}]}
{"smiles": "CC(=O)Nc1ccc(-c2nn(C)/c(=N/C3CCCC(O)C3)s2)cc1", "note": "(trans isomer)", "values": [{"measurement": "CL_Ratio", "setting": "[7]", "result": 92, "unit": "%"}, {"measurement": "clearance", "setting": "[1]", "result": 13.3, "unit": "mL/min/kg"}, {"measurement": "bioavailability", "setting": "[2]", "result": 76, "unit": "%"}, {"measurement": "solubility", "setting": "[8]; read-out: Solubility", "result": 350, "unit": "µg/mL"}, {"measurement": "half-life", "setting": "[4]", "result": 138, "unit": "min"}, {"measurement": "Vd", "setting": "[5]; read-out: Vd", "result": 2.02, "unit": "L/kg"}]}
